According to publication PMC10331583, “Control of fibrosis with enhanced safety via asymmetric inhibition of prolyl‐tRNA synthetase 1” (EMBO Molecular Medicine, 2023):
Several values for one entry are separate records, joined by “and”; a condition that tells them apart may be missing. Identical values can stand only once. Like-named read-outs stand apart in the source and are kept apart here.

Key:
[1] = test system: TNT Quick Coupled Transcription/Translation System (luciferase synthesis); format: biochemical
WI‐26 VA4 cells [2] = experiment: Puromycin incorporation assay; format: cell-based, human
Outline: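 WI‐26 VA4 cell lysates prepared in carbonate-bicarbonate buffer with protease inhibitor; 400 ng protein coated on ELISA plates 18 h at 4°C. Puromycin incorporated into proteins detected by antibody ELISA, absorbance 450 nm with 620 nm reference; outlier values excluded based on replicates and adjacent concentrations.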

WI‐26 VA4 cells [3] = experiment: CellTiter‐Glo assay (cytotoxicity); conditions: for activity at 0.01 µM: WI26VA4, read-out: CellTiter-Glo % of control, 10 nM; for activity at 0.03 µM: WI26VA4, read-out: CellTiter-Glo % of control, 30 nM; for activity at 0.1 µM: WI26VA4, read-out: CellTiter-Glo % of control, 100 nM; for activity at 0.3 µM: WI26VA4, read-out: CellTiter-Glo % of control, 300 nM; for activity at 1 µM: WI26VA4, read-out: CellTiter-Glo % of control, 1000 nM; for activity at 3 µM: WI26VA4, read-out: CellTiter-Glo % of control, 3000 nM; for activity at 10 µM: WI26VA4, read-out: CellTiter-Glo % of control, 10000 nM
[4] = log(inhibitor) vs. response, variable slope (four parameters), concentration in nM
[5] = Homo sapiens, Experiment #1, replicates
[6] = Homo sapiens, Experiment #2, replicates

## O[C@H]1CCCN[C@@H]1CCCn1cnc2c(Cl)c(Cl)ccc21 [DWN12088]
[1]; 2000 nM, Experiment #1, replicates, 2 µM
  TNT-luciferase % of control: 107.63 % of control and 97.97 % of control and 101.55 % of control
[1]; 2000 nM, Experiment #2, replicates, 2 µM
  TNT-luciferase % of control: 104.64 % of control and 94.62 % of control and 88.50 % of control
[1]; 2000 nM
  TNT-luciferase % of control, average: 99.15 % of control
[1]; 6000 nM, Experiment #1, replicates, 6 µM
  TNT-luciferase % of control: 101.91 % of control and 104.41 % of control and 119.43 % of control
[1]; 6000 nM, Experiment #2, replicates, 6 µM
  TNT-luciferase % of control: 96.85 % of control and 102.97 % of control and 104.64 % of control
[1]; 6000 nM
  TNT-luciferase % of control, average: 105.03 % of control
[1]; 20000 nM, Experiment #1, replicates, 20 µM
  TNT-luciferase % of control: 72.94 % of control (2×) and 59.71 % of control
[1]; 20000 nM, Experiment #2, replicates, 20 µM
  TNT-luciferase % of control: 84.60 % of control (2×) and 85.71 % of control
[1]; 20000 nM
  TNT-luciferase % of control, average: 76.75 % of control
[1]; 60000 nM, Experiment #1, replicates, 60 µM
  TNT-luciferase % of control: 38.97 % of control and 46.84 % of control and 41.48 % of control
[1]; 60000 nM, Experiment #2, replicates, 60 µM
  TNT-luciferase % of control: 51.21 % of control and 53.71 % of control and 53.43 % of control
[1]; 60000 nM
  TNT-luciferase % of control, average: 47.61 % of control
[1]; 200000 nM, Experiment #1, replicates, 200 µM
  TNT-luciferase % of control: 1.16 % of control and 1.03 % of control and 1.24 % of control
[1]; 200000 nM, Experiment #2, replicates, 200 µM
  TNT-luciferase % of control: 6.68 % of control and 5.56 % of control and 5.68 % of control
[1]; 200000 nM
  TNT-luciferase % of control, average: 3.56 % of control
[1]; 600000 nM, Experiment #1, replicates, 600 µM
  TNT-luciferase % of control: 0.00561 % of control and 0.00168 % of control and 0.00107 % of control
[1]; 600000 nM, Experiment #2, replicates, 600 µM
  TNT-luciferase % of control: 0.24 % of control and 0.28 % of control and 0.27 % of control
[1]; 600000 nM
  TNT-luciferase % of control, average: 0.13 % of control
[1]; 2000000 nM, Experiment #1, replicates, 2000 µM
  TNT-luciferase % of control: 0.00107 % of control and -0.00501 % of control and -0.00597 % of control
[1]; 2000000 nM, Experiment #2, replicates, 2000 µM
  TNT-luciferase % of control: 0.0153 % of control and 0.00456 % of control and 0.00807 % of control
[1]; 2000000 nM
  TNT-luciferase % of control, average: 0.00301 % of control
[1]; [4]
  TNT-luciferase LogIC50 (best-fit value): 4.702
[1]; log(inhibitor) vs. response, variable slope (four parameters), unit from head concentration (nM), read-out: TNT-luciferase IC50 (best-fit value)
  IC50: 50300 nM
WI‐26 VA4 cells [2]; 30000 nM, 30 µM
  Puromycin, % of control, single replicate: 67.68 % of control (2×) and 67.72 % of control (2×) and 65.74 % of control (2×) and 95.99 % of control and 94.34 % of control and 94.68 % of control
WI‐26 VA4 cells [2]; 300000 nM, 300 µM
  Puromycin, % of control, single replicate: 0.28 % of control (2×) and -0.36 % of control (2×) and 0.08 % of control (2×) and 0.75 % of control and 0.84 % of control and 0.22 % of control
WI‐26 VA4 cells [2]; 1000000 nM, 1000 µM
  Puromycin, % of control, single replicate: -0.0139 % of control (2×) and -0.24 % of control (2×) and 0.08 % of control (2×) and 0.39 % of control (2×) and 0.49 % of control
WI‐26 VA4 cells [2]; Homo sapiens, WI26VA4, read-out: Puromycin, % of control, average, 300 nM
  activity at 0.3 µM: 104%
WI‐26 VA4 cells [2]; Homo sapiens, WI26VA4, read-out: Puromycin, % of control, average, 1000 nM
  activity at 1 µM: 109%
WI‐26 VA4 cells [2]; Homo sapiens, WI26VA4, read-out: Puromycin, % of control, average, 3000 nM
  activity at 3 µM: 103%
WI‐26 VA4 cells [2]; Homo sapiens, WI26VA4, read-out: Puromycin, % of control, average, 30000 nM
  activity at 30 µM: 76.4%
WI‐26 VA4 cells [2]; Homo sapiens, WI26VA4, read-out: Puromycin, % of control, average, 100000 nM
  activity at 100 µM: 29.7%
WI‐26 VA4 cells [2]; Homo sapiens, WI26VA4, read-out: Puromycin, % of control, average, 300000 nM
  activity at 300 µM: 0.2%
WI‐26 VA4 cells [2]; Homo sapiens, WI26VA4, read-out: Puromycin, % of control, average, 1000000 nM
  activity at 1000 µM: 0.1%
WI‐26 VA4 cells [2]; Homo sapiens, WI26VA4, read-out: Puromycin, % of control, single replicate, 300 nM
  activity at 0.3 µM: 107%
WI‐26 VA4 cells [2]; Homo sapiens, WI26VA4, read-out: Puromycin, % of control, single replicate, 1000 nM
  activity at 1 µM: 107%
WI‐26 VA4 cells [2]; Homo sapiens, WI26VA4, read-out: Puromycin, % of control, single replicate, 3000 nM
  activity at 3 µM: 99.5%
WI‐26 VA4 cells [2]; Homo sapiens, WI26VA4, read-out: Puromycin, % of control, single replicate, 10000 nM
  activity at 10 µM: 98.3%
WI‐26 VA4 cells [2]; Homo sapiens, WI26VA4, read-out: Puromycin, % of control, single replicate, 100000 nM
  activity at 100 µM: 27.4%
WI‐26 VA4 cells [2]; Homo sapiens, WI26VA4, read-out: Puromycin, IC50 (best-fit value)
  IC50: 56.8 µM
WI‐26 VA4 cells [2]; log(inhibitor) vs. response, variable slope (four parameters)
  Puromycin, HillSlope (best-fit value): -1.616
WI‐26 VA4 cells [2]; [4]
  Puromycin, LogIC50 (best-fit value): 4.754
WI‐26 VA4 cells [3]; Fig 1B
  CC50 fold versus HF: ~ 397 fold
WI‐26 VA4 cells [3]; [5]
  activity at 0.01 µM: 107%
  activity at 0.03 µM: 95.8%
  activity at 0.1 µM: 107%
  activity at 0.3 µM: 109%
  activity at 1 µM: 106%
  activity at 3 µM: 88.2%
  activity at 10 µM: 71.7%
WI‐26 VA4 cells [3]; [6]
  activity at 0.01 µM: 105%
  activity at 0.03 µM: 108%
  activity at 0.1 µM: 107%
  activity at 0.3 µM: 102%
  activity at 1 µM: 105%
  activity at 3 µM: 90.3%
  activity at 10 µM: 92%
WI‐26 VA4 cells [3]; Homo sapiens, WI26VA4, read-out: CellTiter-Glo % of control, 30000 nM, Experiment #1, replicates
  activity at 30 µM: 34.8%
